In paper PMC12155096 (International Journal of Molecular Sciences, 2025):
Where a name gives a salt, the structure may show the parent alone. Read-outs that look alike come from different tables or passages of the source.

What was measured:
human CYP1A2 = molecular target: T1, human CYP1A2 (Homo sapiens, UniProt P05177); assay: biochemical
T1 sequence (P05177 1-516): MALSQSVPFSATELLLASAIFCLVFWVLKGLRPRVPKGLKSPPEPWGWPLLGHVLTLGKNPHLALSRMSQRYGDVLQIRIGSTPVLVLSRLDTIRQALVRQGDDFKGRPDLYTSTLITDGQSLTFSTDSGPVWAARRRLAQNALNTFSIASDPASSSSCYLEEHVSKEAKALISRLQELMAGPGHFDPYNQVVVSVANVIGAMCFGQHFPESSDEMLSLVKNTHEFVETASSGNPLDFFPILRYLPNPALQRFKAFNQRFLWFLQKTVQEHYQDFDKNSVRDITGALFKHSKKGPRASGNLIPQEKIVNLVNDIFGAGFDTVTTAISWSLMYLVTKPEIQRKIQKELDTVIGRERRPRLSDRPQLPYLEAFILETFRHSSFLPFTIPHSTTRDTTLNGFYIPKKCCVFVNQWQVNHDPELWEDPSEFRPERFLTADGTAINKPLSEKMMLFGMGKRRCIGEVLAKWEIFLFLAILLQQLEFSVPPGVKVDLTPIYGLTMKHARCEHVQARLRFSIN

human CYP2C19 = human CYP2C19 (Homo sapiens, UniProt P33261); assay: biochemical
Chain of human CYP2C19 (P33261 whole entry): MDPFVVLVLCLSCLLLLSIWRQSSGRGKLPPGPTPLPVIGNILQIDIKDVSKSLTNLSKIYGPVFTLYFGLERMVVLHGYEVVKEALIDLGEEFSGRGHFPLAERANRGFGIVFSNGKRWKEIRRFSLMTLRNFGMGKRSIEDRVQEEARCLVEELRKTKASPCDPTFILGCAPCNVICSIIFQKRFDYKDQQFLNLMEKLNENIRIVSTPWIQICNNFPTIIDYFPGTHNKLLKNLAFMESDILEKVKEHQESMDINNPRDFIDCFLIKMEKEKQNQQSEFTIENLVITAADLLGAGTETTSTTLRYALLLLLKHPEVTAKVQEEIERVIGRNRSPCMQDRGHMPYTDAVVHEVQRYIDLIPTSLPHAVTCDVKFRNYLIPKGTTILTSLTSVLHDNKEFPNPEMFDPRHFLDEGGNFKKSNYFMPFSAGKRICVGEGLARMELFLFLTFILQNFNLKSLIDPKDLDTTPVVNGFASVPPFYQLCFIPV

human CYP2D6 = human CYP2D6 (Homo sapiens, UniProt P10635)
Chain of human CYP2D6 (P10635 whole entry): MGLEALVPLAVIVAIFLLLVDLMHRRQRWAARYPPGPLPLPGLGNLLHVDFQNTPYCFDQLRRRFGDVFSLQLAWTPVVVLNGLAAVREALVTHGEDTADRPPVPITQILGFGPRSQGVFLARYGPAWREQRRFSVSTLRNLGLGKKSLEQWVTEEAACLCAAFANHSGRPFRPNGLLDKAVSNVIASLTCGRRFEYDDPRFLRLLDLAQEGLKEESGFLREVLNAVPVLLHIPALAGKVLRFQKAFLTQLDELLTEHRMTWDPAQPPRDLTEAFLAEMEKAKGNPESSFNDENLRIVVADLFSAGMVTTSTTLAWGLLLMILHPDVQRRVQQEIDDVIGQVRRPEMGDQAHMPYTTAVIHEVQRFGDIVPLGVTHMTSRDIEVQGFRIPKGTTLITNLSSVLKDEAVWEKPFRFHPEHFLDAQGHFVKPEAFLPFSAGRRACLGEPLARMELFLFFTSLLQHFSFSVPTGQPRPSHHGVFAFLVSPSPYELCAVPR

human CYP2C9 = human CYP2C9 (Homo sapiens, UniProt P11712); assay: biochemical
Chain of human CYP2C9 (P11712 whole entry): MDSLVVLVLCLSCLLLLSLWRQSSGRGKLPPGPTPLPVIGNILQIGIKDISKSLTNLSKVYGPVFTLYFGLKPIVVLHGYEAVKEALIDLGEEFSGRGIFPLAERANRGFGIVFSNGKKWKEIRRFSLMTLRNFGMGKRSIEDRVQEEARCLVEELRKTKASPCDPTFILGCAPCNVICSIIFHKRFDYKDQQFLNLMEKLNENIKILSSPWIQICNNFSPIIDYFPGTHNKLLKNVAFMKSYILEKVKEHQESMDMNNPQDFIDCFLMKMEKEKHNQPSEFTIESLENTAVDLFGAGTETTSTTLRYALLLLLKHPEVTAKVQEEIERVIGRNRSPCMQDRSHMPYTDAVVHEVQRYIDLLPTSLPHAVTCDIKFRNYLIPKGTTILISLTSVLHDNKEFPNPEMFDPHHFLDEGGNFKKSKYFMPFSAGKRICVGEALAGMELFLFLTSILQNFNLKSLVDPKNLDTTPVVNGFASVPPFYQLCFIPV

CYP3A4 = CYP3A4 (Homo sapiens, UniProt P08684); assay: biochemical
Chain of CYP3A4 (P08684 whole entry): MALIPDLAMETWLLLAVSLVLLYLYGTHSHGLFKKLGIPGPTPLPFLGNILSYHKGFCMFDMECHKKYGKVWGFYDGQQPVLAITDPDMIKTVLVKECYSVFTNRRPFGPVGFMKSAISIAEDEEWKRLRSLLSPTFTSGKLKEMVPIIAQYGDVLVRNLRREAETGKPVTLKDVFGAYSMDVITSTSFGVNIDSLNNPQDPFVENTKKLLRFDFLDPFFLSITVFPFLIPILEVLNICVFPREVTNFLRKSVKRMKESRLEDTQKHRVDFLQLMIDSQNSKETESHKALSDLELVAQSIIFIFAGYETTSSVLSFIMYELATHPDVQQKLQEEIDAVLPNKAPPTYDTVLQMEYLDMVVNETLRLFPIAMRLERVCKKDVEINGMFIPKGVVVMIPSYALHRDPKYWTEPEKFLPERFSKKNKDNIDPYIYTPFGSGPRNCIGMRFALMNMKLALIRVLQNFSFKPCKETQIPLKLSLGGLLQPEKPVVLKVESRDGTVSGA

[1] = CYP1A2 AC50 (half-maximal activity concentration)
[2] = CYP2C19 AC50 (half-maximal activity concentration)
[3] = CYP2C9 AC50 (half-maximal activity concentration)
[4] = CYP3A4 AC50 (half-maximal activity concentration)

| SMILES | AC50 (human CYP1A2; [1]) [µM] | AC50 (human CYP2C19; [2]) [µM] | CYP2D6 AC50 (half-maximal activity concentration) (human CYP2D6) | AC50 (human CYP2C9; [3]) [µM] | AC50 (CYP3A4; [4]) [µM] | AC50 (human CYP1A2) [µM] | AC50 (human CYP2C19) [µM] | AC50 (human CYP2C9) [µM] | AC50 (CYP3A4) [µM] |
| --- | --- | --- | --- | --- | --- | --- | --- | --- | --- |
| CCOC(=O)C1OC1(C)c1ccccc1 (centres unmarked) [Ethyl methylphenylglycidate] | 34.6 | 45.4 | Inconclusive inhibitor | 61.4 | 37.7 | – | – | – | – |
| CCOC(=O)COC(=O)c1ccccc1C(=O)OCC [Ethyl phthalyl ethyl glycolate] | – | – | Inactive | – | – | 7.68 | 20.8 | 31.9 | 47.4 |
| CCOC(=O)C(C)Oc1ccc(Oc2nc3ccc(Cl)cc3o2)cc1 (centres unmarked) [Fenoxaprop-ethyl] | 23.9 | 53 | Inconclusive inhibitor | 44 | 28.4 | – | – | – | – |
| N#Cc1c[nH]cc1-c1cccc2c1OC(F)(F)O2 [Fludioxonil] | 1.53 | 5.3 | Inactive | 18.6 | 5.11 | – | – | – | – |
| CC(C)N(C(=O)COc1nnc(C(F)(F)F)s1)c1ccc(F)cc1 [Flufenacet] | 37 | 3.4 | Inactive | 35.6 | 19.3 | – | – | – | – |
| N#Cc1cc(I)c(O)c(I)c1 [Ioxynil] | 46.2 | 83.2 | Inactive | 22.4 | 38.5 | – | – | – | – |
| O=C(NC(=O)c1c(F)cccc1F)Nc1cc(Cl)c(OC(F)(F)C(F)C(F)(F)F)cc1Cl (centres unmarked) [Lufenuron] | 35.7 | 10.9 | Inactive | 11.3 | 7.45 | – | – | – | – |
| CCCCCC1C(=O)CCC1CC(=O)OC (centres unmarked) [Methyl dihydrojasmonate] | 27.2 | 2.53 | Inconclusive inhibitor | 28.4 | 8.73 | – | – | – | – |
| BrC(Br)C(Br)(Br)Br [Pentabromoethane] | 33.2 | 48.6 | Inconclusive inhibitor | 22.7 | 16.1 | – | – | – | – |
| Clc1nc(Cl)c(Cl)c(Cl)c1Cl [Pentachloropyridine] | 41.8 | 61.1 | Inactive | 62.4 | 8.61 | – | – | – | – |
| CSc1nc(NC(C)C)nc(NC(C)C)n1 [Prometryn] | 17.3 | 71 | Inactive | 58.2 | 29.1 | – | – | – | – |
| CC(C)(C)c1ccc(CSc2cnn(C(C)(C)C)c(=O)c2Cl)cc1 [Pyridaben] | 25.6 | 8.29 | Inactive | 7.2 | 4.7 | – | – | – | – |
| CC(COc1ccc(Oc2ccccc2)cc1)Oc1ccccn1 (centres unmarked) [Pyriproxyfen] | 17.3 | 12.4 | Inactive | 12 | 29.7 | – | – | – | – |
| CCCCCCCCOS(=O)(=O)O [Sodium octyl sulfate] | – | – | Inactive | – | – | 68.4 | 52.3 | 30.6 | 62.6 |
| O=C(NC(=O)c1c(F)cccc1F)Nc1cc(Cl)c(F)c(Cl)c1F [Teflubenzuron] | 32.5 | 69.2 | Inactive | 46.5 | 57.7 | – | – | – | – |
| IC(I)=C(I)I [Tetraiodoethene] | 13 | 9.09 | Inactive | 3.57 | 19.5 | – | – | – | – |
| O=CC(Br)(Br)Br [Tribromoacetaldehyde] | 29.6 | 53.3 | Inconclusive inhibitor | 18.4 | 10.2 | – | – | – | – |
| O=P(Oc1ccccc1)(Oc1ccccc1)Oc1ccccc1 [Triphenyl phosphate] | 10.8 | 6.53 | Inactive | 6.87 | 6.42 | – | – | – | – |
| c1ccc(-c2ccccc2-c2ccccc2)cc1 [o-Terphenyl] | 2.91 | 15.9 | Inactive | 26.5 | 24.7 | – | – | – | – |
